In US20060211651A1, “Persulfated oligosaccharide acting on selectins and chemokine” (Taisho Pharmaceutical Co., Ltd., priority 2002, published 2006):
Each block holds one molecule with its values, some of them ahead of it.

Assays:
monomeric L-selectin = target: T1, monomeric L-selectin (Homo sapiens, UniProt P14151); assay: BIAcore surface plasmon resonance, immobilized glycosaminoglycan vs monomeric L-selectin; format: binding; details: monomeric L-selectin
T1 construct: purchased Genzyme-Techne
T1 sequence (P14151 39-332 limits assumed): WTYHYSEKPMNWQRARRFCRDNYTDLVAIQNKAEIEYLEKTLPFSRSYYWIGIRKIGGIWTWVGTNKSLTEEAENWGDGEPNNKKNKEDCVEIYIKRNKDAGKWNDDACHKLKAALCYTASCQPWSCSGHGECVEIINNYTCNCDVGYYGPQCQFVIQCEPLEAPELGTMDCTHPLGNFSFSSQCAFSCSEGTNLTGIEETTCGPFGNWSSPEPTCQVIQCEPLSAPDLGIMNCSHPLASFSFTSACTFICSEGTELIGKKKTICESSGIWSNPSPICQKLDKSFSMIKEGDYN
Description: (§1) Affinity kinetics of the interaction between various CS/DS chains and each of L-selectin, P-selectin, CD44 and chemokine were examined by surface plasmon resonance using BIAcore™ biosensor [manufactured by BIAcore AB].
(§2) All experiments were performed at 25° C. At stages of washing and dissociation, buffer C (20 mM HEPES-NaOH, 0.15M NaCl, 1 mM CaCl2, 1 mM MgCl2, pH6.8) was used as a running buffer.
(§3) First, about 1.8 to 2.0 kiloresonance unit (1 kiloresonance unit=1 ng/mm^2) of streptavidin were covalently immobilized onto B1 sensor chip via a primary amine group using an amine coupling kit [manufactured by Amercham-Bioscience] according to the instruction provided by the manufacturer. The remaining activated groups were blocked with 150 μl of 1M ethanolamine-HCl (pH8.5). Then, each glycosaminoglycan which had been biotinylated at a reducing end was injected to a sensor tip surface by using EZ-link™ biotin-LC-hydrazide [manufactured by Pierce] so as to obtain about 150 resonance unit of an immobilization level, according to the method of Sadir et al. [J. Biol. Chem., 276, 8288-8296 (2001); all teachings of which are hereby incorporated by reference].
(§4) Binding assay was performed by injecting continuously each of various concentrations of secondary lymphoid tissue chemokine, γ-interferon inducible protein-10, stromal cell-derived factor-1β, monomeric L-selectin [manufactured by Genzyme-Techne], monomeric P-selectin [manufactured by Genzyme-Techne] and monomeric CD44, to a glycosaminoglycan-coupled sensor tip at a flow rate of 30 μl/min for 0 to 90 seconds, and then injecting a running buffer thereto. A response in resonance unit was recorded as a function of a time.
(§5) A sensor tip surface was regenerated with 300 μl of 1 M NaCl when chemokine or CD44 was used, or regenerated with 300 μl of 1 M NaCl, and additional 100 μl of 50 mM EDTA (pH8.0), when selectin was used. As a result of regeneration of a sensor tip surface, a remarkable change in a baseline was not observed.
(§6) An affinity kinetic parameter was determined by BIAevaluation 3.0 software [manufactured by Pharmacia Biosensor] using a single site binding model. […] In FIG. 6 and Table 3, SLC denotes secondary lymphoid tissue chemokin, IP-10 denotes γ-interferon inducible protein-10, SDF-1β denotes stromal cell-derived factor-1β, CS E denotes chondroitin sulfate E, and CS A denotes chondroitin sulfate A. In addition, in Table 3, Kd value for the interaction between monomeric CD44 and chondroitin sulfate E is a value calculated from a binding amount at equilibrium, and Kd value of the interaction between CD44 and hyaluronic acid is a value calculated using CD44-Ig.

monomeric P-selectin [1] = target: T2, monomeric P-selectin (Homo sapiens, UniProt P16109); assay: BIAcore surface plasmon resonance, immobilized glycosaminoglycan vs monomeric P-selectin; format: binding; details: monomeric P-selectin
T2 construct: purchased Genzyme-Techne
T2 sequence (P16109 42-771 limits assumed): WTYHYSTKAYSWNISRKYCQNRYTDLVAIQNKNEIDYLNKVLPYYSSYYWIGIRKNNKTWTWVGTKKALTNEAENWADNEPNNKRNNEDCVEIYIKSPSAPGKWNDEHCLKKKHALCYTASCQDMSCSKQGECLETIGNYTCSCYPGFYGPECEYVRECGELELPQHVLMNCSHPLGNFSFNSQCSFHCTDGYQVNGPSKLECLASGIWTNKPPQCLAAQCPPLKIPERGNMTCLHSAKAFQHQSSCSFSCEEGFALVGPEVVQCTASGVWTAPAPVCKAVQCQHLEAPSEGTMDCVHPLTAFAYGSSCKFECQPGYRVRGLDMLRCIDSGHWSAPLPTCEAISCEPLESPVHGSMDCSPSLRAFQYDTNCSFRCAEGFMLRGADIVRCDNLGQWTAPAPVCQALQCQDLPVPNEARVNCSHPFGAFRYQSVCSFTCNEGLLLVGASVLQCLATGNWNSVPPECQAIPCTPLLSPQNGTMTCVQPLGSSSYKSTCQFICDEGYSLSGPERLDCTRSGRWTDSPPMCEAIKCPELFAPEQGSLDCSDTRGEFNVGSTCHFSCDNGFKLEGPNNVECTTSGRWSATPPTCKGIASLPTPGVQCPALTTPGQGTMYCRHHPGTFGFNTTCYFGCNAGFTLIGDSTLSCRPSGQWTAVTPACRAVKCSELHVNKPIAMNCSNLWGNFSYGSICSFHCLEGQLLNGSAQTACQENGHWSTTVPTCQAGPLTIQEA
Description: as §1, §2, §3, §4, §5, §6

monomeric CD44 = target: T3, monomeric CD44 (Homo sapiens, UniProt P16070); assay: BIAcore surface plasmon resonance, immobilized glycosaminoglycan vs monomeric CD44; format: binding; details: CD44 monomeric; GAG immobilized; 25° C.
T3 construct: codons of amino acids positions 172 to 178 of human CD44; Myc-His (from vector pcDNA 3.1/Myc-His(+) B) (C); made in house; host or cells: 293T cells, secreted into conditioned medium and purified on anti-CD44 BRIC 235 Sepharose
Description: Human-derived CD44 cDNA was prepared by PCR using a sense primer (SEQ ID NO: 1):
Thereafter, the conditioned medium was subjected to immunoaffinity chromatography with anti-CD44 monoclonal antibody BRIC 235-coupled CNBr-activated Sepharose 4B, to obtain monomeric CD44. The resulting soluble CD44 was subjected to SDS-PAGE and silver staining. As a result, the purity of the resulting soluble CD44 was more than 95%.
as §1, §2, §3, §4, §5, §6

[2] = test system: secondary lymphoid tissue chemokine; assay: BIAcore surface plasmon resonance, immobilized glycosaminoglycan vs SLC; format: binding
Description: as §1, §2, §3, §4, §5, §6

[3] = target: γ-interferon inducible protein-10 (Homo sapiens, UniProt P02778); assay: BIAcore surface plasmon resonance, immobilized glycosaminoglycan vs IP-10; format: binding
Description: as §1, §2, §3, §4, §5, §6

[4] = target: T4, stromal cell-derived factor-1β (Homo sapiens, UniProt P48061); assay: BIAcore surface plasmon resonance, immobilized glycosaminoglycan vs SDF-1β; format: binding
T4 construct: purchased Pepro Tech
Description: as §1, §2, §3, §4, §5, §6

L-selectin-Ig = target: T5, L-selectin-Ig (Homo sapiens, UniProt P14151); assay: Binding inhibition assay (ELISA), biotinylated versican to L-selectin-Ig, various concentrations; details: dose-dependent, FIG. 2 panel A
T5 construct: purchased R & D Systems Inc
Description: (§7) Inhibition assay of binding between versican and each of L-selectin, P-selectin and CD44 was performed as follows. First, each well on a 96 well flat bottom microtiter plate (Coster EIA/RIA plate No. 3690) was coated with L-selectin-Ig (3 μg/ml), P-selectin-Ig (4 μg/ml) or CD44-Ig (0.25 μg/ml) by a conventional procedure. […] The plate was incubated at room temperature for 2 hours. Thereafter, the plate was washed with the buffer A, and enzyme-linked immunosorbent assay was performed in the same manner as described in Kawashima, H. et al. [J. Biol. Chem., 275, 35448-35456 (2000)]. Binding was determined by measuring absorbance at 620 nm using alkaline phosphatase-conjugated streptavidin and Blue Phos™ substrate.

P-selectin-Ig = assay: Binding inhibition assay (ELISA), biotinylated versican to P-selectin-Ig, various concentrations; details: dose-dependent, FIG. 2 panel B
Description: as §7

CD44-Ig [5] = assay: ELISA, biotinylated versican binding to CD44-Ig in presence of glycosaminoglycan; design: species or system human; details: 100 μg/ml glycosaminoglycan; FIG. 5
Description: A well of a 96 well flat bottom microtiter plate was coated with BSA (5 μg/ml), anti-versican monoclonal antibody 2B1 (5 μg/ml), CD44-Ig (7 μg/ml), L-selectin-Ig (3 μg/ml), P-selectin-Ig (3 μg/ml) or chemokine (1 μg/ml), and then blocked with a phosphate buffered physiological saline containing 3% by weight of BSA. As the above chemokine, secondary lymphoid tissue chemokine, γ-interferon inducible protein-10, platelet factor 4, stromal cell-derived factor-1β [manufactured by Pepro Tech] and stromal cell-derived factor-1α [manufactured by Pepro Tech] were used.
Thereafter, the plate was washed with the buffer A, and enzyme-linked immunosorbent assay was performed in the same manner as that of the previous report [Kawashima, H. et al., J. Biol. Chem., 275, 35448-35456 (2000)]. Binding was determined by measuring absorbance at 620 nm using alkaline phosphatase-conjugated streptavidin and Blue Phos™ substrate. In FIG. 5, expression of an abscissa axis is the same as that of FIG. 4.

CD44-Ig [6] = assay: BIAcore surface plasmon resonance, hyaluronic acid vs CD44-Ig; design: species or system human; details: bivalent analyte binding model
Description: Then, using the resulting CD44, human CD44-immunoglobulin (Ig) was prepared according to the method described in Toyama-Sorimachi, N. [J. Biol. Chem., 270, 7437-7444, (1995); all teachings of which are hereby incorporated by reference].
as §1, §2
First, about 1.8 to 2.0 kiloresonance unit (1 kiloresonance unit=1 ng/mm^2) of streptavidin were covalently immobilized onto B1 sensor chip via a primary amine group using an amine coupling kit [manufactured by Amercham-Bioscience] according to the instruction provided by the manufacturer. The remaining activated groups were blocked with 150 μl of 1M ethanolamine-HCl (pH8.5). […]
as §4, with “time. […]” for “time.”
In FIG. 6 and Table 3, SLC denotes secondary lymphoid tissue chemokin, IP-10 denotes γ-interferon inducible protein-10, SDF-1β denotes stromal cell-derived factor-1β, CS E denotes chondroitin sulfate E, and CS A denotes chondroitin sulfate A. In addition, in Table 3, Kd value for the interaction between monomeric CD44 and chondroitin sulfate E is a value calculated from a binding amount at equilibrium, and Kd value of the interaction between CD44 and hyaluronic acid is a value calculated using CD44-Ig.

monomeric P-selectin [7] = target: T2, monomeric P-selectin; details: cited from earlier work

CD44-Ig, sequence (P16070 21-178 limits assumed): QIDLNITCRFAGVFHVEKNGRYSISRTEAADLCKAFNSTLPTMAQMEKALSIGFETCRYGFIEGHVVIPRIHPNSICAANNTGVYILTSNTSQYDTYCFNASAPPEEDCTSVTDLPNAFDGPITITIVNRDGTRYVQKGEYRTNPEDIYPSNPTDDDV
T3 sequence (P16070 21-178 limits assumed): as above
T5 sequence (P14151 with tags, fused parts or gaps limits assumed): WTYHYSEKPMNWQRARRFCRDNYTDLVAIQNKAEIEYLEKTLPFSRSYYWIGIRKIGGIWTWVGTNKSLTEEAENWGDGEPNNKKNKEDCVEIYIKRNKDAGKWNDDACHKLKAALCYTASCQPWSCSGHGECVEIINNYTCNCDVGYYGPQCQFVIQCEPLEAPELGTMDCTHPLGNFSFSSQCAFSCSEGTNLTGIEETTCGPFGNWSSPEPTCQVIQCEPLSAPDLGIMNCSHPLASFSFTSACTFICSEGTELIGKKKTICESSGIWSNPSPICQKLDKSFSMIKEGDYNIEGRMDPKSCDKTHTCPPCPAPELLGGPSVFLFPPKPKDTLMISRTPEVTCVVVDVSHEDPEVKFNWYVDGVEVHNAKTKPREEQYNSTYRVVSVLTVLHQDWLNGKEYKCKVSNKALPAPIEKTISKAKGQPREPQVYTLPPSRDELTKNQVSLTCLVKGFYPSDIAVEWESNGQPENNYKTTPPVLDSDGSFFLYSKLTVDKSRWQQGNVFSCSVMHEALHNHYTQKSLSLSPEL
T4 sequence (P48061 22-93): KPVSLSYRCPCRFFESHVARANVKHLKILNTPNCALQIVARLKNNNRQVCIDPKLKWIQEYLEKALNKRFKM
γ-interferon inducible protein-10, sequence (P02778 22-98): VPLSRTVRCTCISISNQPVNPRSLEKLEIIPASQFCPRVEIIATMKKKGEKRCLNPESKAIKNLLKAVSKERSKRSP

- interaction with immobilized glycosaminoglycan (sensorgram) (monomeric L-selectin): did not interact
- interaction with immobilized glycosaminoglycan (sensorgram) (monomeric P-selectin [1]): did not interact
- Kd (monomeric CD44): 129000 nM
- koff (monomeric CD44): 0.0649 s⁻¹
- kon (monomeric CD44): 503 M⁻¹ s⁻¹
- interaction with immobilized glycosaminoglycan (sensorgram) [3]: did not interact
- interaction with immobilized glycosaminoglycan (sensorgram) [4]: did not interact
- inhibition of binding between biotinylated versican and L-selectin-Ig (L-selectin-Ig): not inhibited
- inhibition of binding between biotinylated versican and P-selectin-Ig (P-selectin-Ig): not inhibited
- inhibition of binding between biotinylated versican and CD44-Ig (CD44-Ig [5]): inhibited
Molecule: chondroitin
- interaction with immobilized glycosaminoglycan (sensorgram) [2]: did not interact

- inhibition of binding between biotinylated versican and L-selectin-Ig (L-selectin-Ig): not inhibited
- inhibition of binding between biotinylated versican and P-selectin-Ig (P-selectin-Ig): not inhibited
Molecule: dermatan sulfate [DS]

- Kd (CD44-Ig [6]; determined using CD44-Ig): 2080 nM
Molecule: hyaluronic acid [HA]
- koff (CD44-Ig [6]; CD44-Ig): 0.0543 s⁻¹
- kon (CD44-Ig [6]; CD44-Ig): 26100 M⁻¹ s⁻¹

B1: P-selectin glycoprotein ligand-1: known ligand of P-selectin (protein, UniProt Q14242 42-412, looked up)
P-selectin glycoprotein …: QATEYEYLDYDFLPETEPPEMLRNSTDTTPLTGPGTPESTTVEPAARRSTGLDAGGAVTELTTELANMGNLSTDSAAMEIQTTQPAATEAQTTQPVPTEAQTTPLAATEAQTTRLTATEAQTTPLAATEAQTTPPAATEAQTTQPTGLEAQTTAPAAMEAQTTAPAAMEAQTTPPAAMEAQTTQTTAMEAQTTAPEATEAQTTQPTATEAQTTPLAAMEALSTEPSATEALSMEPTTKRGLFIPFSVSSVTHKGIPMAASNLSVNYPVGAPDHISVKQCLLAILILALVATIFFVCTVVLAVRLSRKGHMYPVRNYSPTEMVCISSLLPDGGEGPSATANGGLSKAKSPGLTPEPREDREGDDLTLHSFLP
- Kd (monomeric P-selectin [7]): ~300 nM
- association rate (monomeric P-selectin [7]): 4.4e+06 M⁻¹ s⁻¹
- dissociation rate (monomeric P-selectin [7]): 1.4 s⁻¹
